# Assay results reported in patent publication US5324648A, “Substituted isocoumarins as serine protease inhibitors and anti-inflammatory agents” (Georgia Tech Research Corporation, priority 1992, dated 1994).
# Where two headings read alike, the source gives them in different places.
# What was measured:
# [1] = molecular target: T1, human leukocyte elastase (HLE) (Homo sapiens, UniProt P08246); experiment: Inactivation of human leukocyte elastase (HLE); type: biochemical
# T1 construct: from tissue; host or cells: human leukocytes (from the name)
# T1 sequence (P08246 30-267): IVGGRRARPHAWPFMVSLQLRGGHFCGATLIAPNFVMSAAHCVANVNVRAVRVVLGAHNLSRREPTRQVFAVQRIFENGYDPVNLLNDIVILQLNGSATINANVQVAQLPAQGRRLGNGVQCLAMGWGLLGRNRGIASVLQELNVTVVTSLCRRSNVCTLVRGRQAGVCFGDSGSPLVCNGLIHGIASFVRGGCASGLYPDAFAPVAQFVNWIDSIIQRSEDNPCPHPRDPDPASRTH
# [2] = molecular target: T2, porcine pancreatic elastase (PPE) (Sus scrofa, UniProt P00772); experiment: Inactivation of porcine pancreatic elastase (PPE); type: biochemical
# T2 construct: from tissue; host or cells: porcine pancreas (from the name)
# T2 sequence (P00772 27-266): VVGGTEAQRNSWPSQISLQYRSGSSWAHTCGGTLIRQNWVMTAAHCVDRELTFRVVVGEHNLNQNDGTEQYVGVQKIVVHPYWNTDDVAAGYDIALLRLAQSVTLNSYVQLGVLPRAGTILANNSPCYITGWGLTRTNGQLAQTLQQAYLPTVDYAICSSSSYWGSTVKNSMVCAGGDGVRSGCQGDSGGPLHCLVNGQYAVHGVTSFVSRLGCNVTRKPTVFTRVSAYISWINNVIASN
# Protocol: Inactivation rates of serine proteases by substituted isocoumarins were measured by the incubation method. An aliquot of inhibitor (25 or 50 μl) in Me2 SO was added to a buffered enzyme solution (0.01-2.3 μM) to initiate the inactivation. Aliquots (50 μl) were withdrawn at various intervals and the residual enzymatic activity was measured. Me2 SO concentration in the reaction mixture was 8-12% (v/v). 0.1 Hepes, 0.01M CaCl2, pH 7.5 buffer was utilized for trypsin and coagulation enzymes. 0.1M Hepes, 0.5M NaCl, pH 7.5 was utilized for other serine proteases. […] Peptide thioesters or peptide nitroanilides with appropriate sequence were used as substrates for various serine proteases. All peptide thioester hydrolysis rates were measured with assay mixtures containing 4,4'-dithiodipyridine (ε324 =19800M^-1 cm^-1 ; Grasetti & Murray, Arch. Biochem. Biophys. 119, pp 41-49 (1967)). Peptide 4-nitroanilide nitroanilide hydrolysis was measured at 410 nm (ε410 =8800M^-1 cm^-1 ; Erlanger et al., Arch. Biochem. Biophys. 95, pp 271-278 (1961)). First order inactivation rate constant (kobs) were obtained from plots of ln (vt /vo) vs time, and the correlation coefficients were greater than 0.98.
# ^a Inactivation rates were measured at 0.1M Hepes, 0.5 NaCl, pH 7.5,
# 8-12% Me2 SO and 25° C. by incubation method.
# ^a Inhibition rates were measured in 0.1M Hepes, 0.05M NaCl, pH 7.5
# buffer, 8-9% Me2 SO and at 25° C.
# ^a Inhibition constants were in 0.1M Hepes, 0.5M NaCl, pH 7.5 buffer,
# 8-9% Me2 SO and at 25° C.
# ^a Inhibition rates were measured in 0.1M Hepes, 0.5M NaCl, 2.5%
# Me2 SO, pH 7,5 and at 25° C.
# ^a Inhibition was measured in 0.1M Hepes, 0.5M NaCl, pH 7.5 buffer,
# 5-10% Me2 SO and at 25° C. Suc--Val--Pro--Phe--NA (0.48 mM)
# was used as the substrate for chymotrypsin and cat G.
# ^a Inhibition rates were measured in 0.1M Hepes, 0.5M NaCl, pH 7.5
# [3] = molecular target: chymotrypsin (Bos taurus, UniProt P00766); experiment: Inactivation of chymotrypsin; type: biochemical, bovine; settings: read-out: kobs/[I]
# [4] = molecular target: T3, cathepsin G (Homo sapiens, UniProt P08311); experiment: Inactivation of cathepsin G; type: biochemical; design: percentage of inhibition: concentration or dose not given beside the values; settings: for kinact/KI: read-out: kobs/[I]
# T3 construct: from tissue; host or cells: human leukocytes
# T3 sequence (P08311 21-255): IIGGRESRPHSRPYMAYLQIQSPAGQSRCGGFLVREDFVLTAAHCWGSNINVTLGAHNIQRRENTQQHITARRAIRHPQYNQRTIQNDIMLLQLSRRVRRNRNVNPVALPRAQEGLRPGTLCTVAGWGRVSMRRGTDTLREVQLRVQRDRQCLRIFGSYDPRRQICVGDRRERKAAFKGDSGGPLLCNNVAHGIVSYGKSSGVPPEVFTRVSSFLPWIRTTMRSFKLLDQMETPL
# [5] = Table XI, pH 7.5, 25° C, [I] 1.4-6.6 μM, per line, read-out: kobs/[I]
# [6] = Table XI, pH 7.5, 25° C, [I] 6.3-600 μM, per line, read-out: kobs/[I]
# [7] = Table XVI, pH 7.5, 25° C, [I] 1.7-58 μM
# [8] = Table XVI, pH 7.5, 25° C, [I] 0.04-2.0 mM, read-out: kobs/[I]
# [9] = Table XVI, pH 7.5, 25° C, [I] 0.07-710 μM, read-out: kobs/[I]
# [10] = pH 7.5, Table XII, 2.5% Me2SO, 25° C, [I] 0.7-1.9 μM, read-out: kobs/[I]
# [11] = pH 7.5, Table XII, 2.5% Me2SO, 25° C, [I] 8.7-87 μM
# [12] = pH 7.5, Table XVI, second order, equimolar inhibitor and enzyme, read-out: kobs/[I]
# [13] = Table XVI, pH 7.5, 25° C, [I] 35-710 μM
smiles,measurement,setting,value
COc1oc(=O)c2cc(NC(=O)NCC(C)C)ccc2c1Cl,kinact/KI,[1]; [5],20000 M⁻¹ s⁻¹
same,kinact/KI,[2]; [6],3200 M⁻¹ s⁻¹
COc1oc(=O)c2cc(NC(=O)CC(CC(=O)O)c3ccccc3)ccc2c1Cl (stereo not shown) [7-(3-phenylglutaryl)amino-4-chloro-3-methoxyisocoumarin],kinact/KI,[1]; [5],66000 M⁻¹ s⁻¹
same,kinact/KI,[2]; [6],3100 M⁻¹ s⁻¹
COc1oc(=O)c2cc(NC(=O)N(CCc3ccccc3)Cc3ccccc3)ccc2c1Cl [7-(N-benzyl-N-phenylethylcarbamoyl)amino-4-chloro-3-methoxyisocoumarin],kinact/KI,[1]; [5],12000 M⁻¹ s⁻¹
same,kinact/KI,[2]; [6],17 M⁻¹ s⁻¹
CC(C)(C)OC(=O)N[C@H](Cc1ccccc1)C(=O)Nc1ccc2c(Cl)c(OCCBr)oc(=O)c2c1 [7-(N-t-butyloxycarbonyl-D-phenylalanyl)amino-4-chloro-3-(2-bromoethoxy)isocoumarin],kinact/KI,[3]; [7],150 M⁻¹ s⁻¹
same,percentage of inhibition,"[4]; Table XVI, after 5 min incubation",19%
same,kinact/KI,[2]; [8],30 M⁻¹ s⁻¹
CC(C)(C)OC(=O)N[C@H](Cc1ccccc1)C(=O)Nc1ccc2c(Cl)c(OCCCBr)oc(=O)c2c1 [7-(N-t-butyloxycarbonyl-D-phenylalanyl)amino-4-chloro-3-(3-bromopropoxy)isocoumarin],kinact/KI,[1]; [9],1480 M⁻¹ s⁻¹
same,kinact/KI,[3]; [7],70 M⁻¹ s⁻¹
CC(C)(C)OC(=O)N[C@@H](Cc1ccccc1)C(=O)Nc1ccc2c(Cl)c(OCCCBr)oc(=O)c2c1 [7-(N-t-butyloxycarbonyl-L-phenylalanyl)amino-4-chloro-3-(3-bromopropoxy)isocoumarin],kinact/KI,[1]; [9],1320 M⁻¹ s⁻¹
same,kinact/KI,[3]; [7],490 M⁻¹ s⁻¹
CCCOc1oc(=O)c2cc(NC(=O)[C@@H](NC(=O)OC(C)(C)C)C(C)C)ccc2c1Cl [7-(N-t-butyloxycarbonyl-valyl)amino-4-chloro-3-propyloxyisocoumarin],kinact/KI,[1]; [10],64000 M⁻¹ s⁻¹
same,kinact/KI,[4]; [11],17 M⁻¹ s⁻¹
COc1oc(=O)c2cc(NC(=O)C(NS(=O)(=O)c3ccc(C)cc3)c3ccccc3)ccc2c1Cl (stereo not drawn) [7-(N-tosyl-α-phenylglycyl)amino-4-chloro-3-methoxyisocoumarin],kinact/KI,[1]; [5],84000 M⁻¹ s⁻¹
same,kinact/KI,[2]; [6],1500 M⁻¹ s⁻¹
O=C(O)c1cccc(NC(=S)Nc2ccc3c(Cl)c(OCCBr)oc(=O)c3c2)c1 [7-(m-carboxyphenyl)thiocarbamoylamino-4-chloro-3-(2-bromoethoxy)isocoumarin],kinact/KI,[1]; [12],> 240000 M⁻¹ s⁻¹
same,kinact/KI,[3]; [7],1960 M⁻¹ s⁻¹
same,kinact/KI,[4]; [13],320 M⁻¹ s⁻¹
COC(=O)Nc1cccc(C(=O)Nc2ccc3c(Cl)c(OC)oc(=O)c3c2)c1 [7-(m-methoxycarbonylaminobenzoyl)amino-4-chloro-3-methoxyisocoumarin],kinact/KI,[1]; [5],100000 M⁻¹ s⁻¹
same,kinact/KI,[2]; [6],2500 M⁻¹ s⁻¹
CCCOc1oc(=O)c2cc(NC(=O)c3cccc([N+](=O)[O-])c3)ccc2c1Cl [7-(m-nitrobenzoyl)amino-4-chloro-3-propyloxyisocoumarin],kinact/KI,[1]; [10],> 210000 M⁻¹ s⁻¹
same,kinact/KI,[4]; [11],4 M⁻¹ s⁻¹
COC(=O)c1ccccc1C(=O)Nc1ccc2c(Cl)c(OC)oc(=O)c2c1 [7-(o-methoxyphthalyl)amino-4-chloro-3-methoxyisocoumarin],kinact/KI,[2]; [6],7100 M⁻¹ s⁻¹
COc1oc(=O)c2cc(NC(=O)c3ccccc3C(=O)O)ccc2c1Cl [7-(o-phthalyl)amino-4-chloro-3-methoxyisocoumarin],kinact/KI,[1]; [5],52000 M⁻¹ s⁻¹
same,kinact/KI,[2]; [6],2700 M⁻¹ s⁻¹
O=C(O)c1ccc(NC(=S)Nc2ccc3c(Cl)c(OCCBr)oc(=O)c3c2)cc1 [7-(p-carboxyphenyl)thiocarbamoylamino-4-chloro-3-(2-bromoethoxy)isocoumarin],kinact/KI,[1]; [12],> 390000 M⁻¹ s⁻¹
same,kinact/KI,[3]; [7],1720 M⁻¹ s⁻¹
same,kinact/KI,[4]; [13],450 M⁻¹ s⁻¹
"CCNC(=O)Nc1ccc2c(Cl)c(OC)oc(=O)c2c1 [7-EtNHCONH-4-chloro-3-methoxyisocoumarin, 7-ethylcarbamoylamino-4-chloro-3-methoxyisocoumarin]",kinact/KI,[2]; [6],1700 M⁻¹ s⁻¹
"CCOC(=O)Nc1ccc2c(Cl)c(OC)oc(=O)c2c1 [7-EtOCONH-4-chloro-3-methoxyisocoumarin, 7-ethoxycarbonylamino-4-chloro-3-methoxyisocoumarin]",kinact/KI,[1]; [5],47000 M⁻¹ s⁻¹
same,kinact/KI,[2]; [6],2000 M⁻¹ s⁻¹
"COc1oc(=O)c2cc(NC(=O)OCC3c4ccccc4-c4ccccc43)ccc2c1Cl [7-Fmoc-NH-4-chloro-3-methoxyisocoumarin, 7-(9-fluorenylmethoxycarbonyl)amino-4-chloro-3-methoxyisocoumarin]",kinact/KI,[1]; [5],10000 M⁻¹ s⁻¹
same,kinact/KI,[2]; [6],20 M⁻¹ s⁻¹
"COc1oc(=O)c2cc(NC(N)=O)ccc2c1Cl [7-H2 NCONH-4-chloro-3-methoxyisocoumarin, 7-carbamoylamino-4-chloro-3-methoxyisocoumarin]",kinact/KI,[2]; [6],2100 M⁻¹ s⁻¹
"COc1oc(=O)c2cc(N=C=O)ccc2c1Cl [7-NCO-4-chloro-3-methoxyisocoumarin, 7-isocyanato-4-chloro-3-methoxyisocoumarin]",kinact/KI,"[1]; pH 7.5, read-out: kobs/[I]",9200 M⁻¹ s⁻¹
same,kinact/KI,"[2]; pH 7.5, read-out: kobs/[I]",650 M⁻¹ s⁻¹
"COc1oc(=O)c2cc(NC(=O)Nc3ccccc3)ccc2c1Cl [7-PhNHCONH-4-chloro-3-methoxyisocoumarin, 7-phenylcarbamoylamino-4-chloro-3-methoxyisocoumarin]",kinact/KI,[1]; [5],49000 M⁻¹ s⁻¹
same,kinact/KI,[2]; [6],7300 M⁻¹ s⁻¹
"COc1oc(=O)c2cc(NC(=O)Oc3ccccc3)ccc2c1Cl [7-PhOCONH-4-chloro-3-methoxyisocoumarin, 7-phenoxycarbonylamino-4-chloro-3-methoxyisocoumarin]",kinact/KI,"[1]; pH 7.5, read-out: kobs/[I]",13000 M⁻¹ s⁻¹
same,kinact/KI,"[2]; pH 7.5, read-out: kobs/[I]",850 M⁻¹ s⁻¹
CCCOc1oc(=O)c2cc(NC(=O)CSC)ccc2c1Cl [7-[(2-thiomethyl)acetyl]amino-4-chloro-3-propyloxyisocoumarin],kinact/KI,[1]; [10],> 152000 M⁻¹ s⁻¹
same,kinact/KI,[4]; [11],28 M⁻¹ s⁻¹
COc1oc(=O)c2cc(NC(=O)OCc3ccccc3)ccc2c1Cl [7-benzyloxycarbonylamino-4-chloro-3-methoxyisocoumarin],kinact/KI,[1]; [5],71000 M⁻¹ s⁻¹
same,kinact/KI,[2]; [6],260 M⁻¹ s⁻¹
CCCOc1oc(=O)c2cc(NC(=S)NCc3ccccc3)ccc2c1Cl [7-benzylthiocarbamoylamino-4-chloro-3-propyloxyisocoumarin],kinact/KI,[1]; [10],> 131000 M⁻¹ s⁻¹
O=C(CCc1ccccc1)Nc1ccc2c(Cl)c(OCCCBr)oc(=O)c2c1 [7-dihydrocinnamoylamino-4-chloro-3-(3-bromopropoxy)isocoumarin],kinact/KI,"[1]; pH 7.5, Table XVI, biphasic plot, read-out: kobs/[I] (biphasic, first value)",35600 M⁻¹ s⁻¹
same,kinact/KI,"[1]; pH 7.5, Table XVI, biphasic plot, read-out: kobs/[I] (biphasic, second value)",9870 M⁻¹ s⁻¹
same,kinact/KI,[3]; [7],600 M⁻¹ s⁻¹
CCOC(=O)Nc1ccc2c(Cl)c(OCC)oc(=O)c2c1 [7-ethoxycarbonylamino-4-chloro-3-ethoxyisocoumarin],kinact/KI,[2]; [6],3500 M⁻¹ s⁻¹
CCNC(=S)Nc1ccc2c(Cl)c(OCC)oc(=O)c2c1 [7-ethylthiocarbamoylamino-4-chloro-3-ethoxyisocoumarin],kinact/KI,[2]; [6],4200 M⁻¹ s⁻¹
COc1oc(=O)c2cc(NC(=O)C(F)(F)C(F)(F)C(F)(F)F)ccc2c1Cl [7-heptafluorobutyroylamino-4-chloro-3-methoxyisocoumarin],kinact/KI,"[1]; pH 7.5, read-out: kobs/[I]",47000 M⁻¹ s⁻¹
same,kinact/KI,"[2]; pH 7.5, read-out: kobs/[I]",1100 M⁻¹ s⁻¹
COc1oc(=O)c2cc(NC(=O)NC(C)C)ccc2c1Cl [7-isopropylcarbamoylamino-4-chloro-3-methoxyisocoumarin],kinact/KI,[1]; [5],9000 M⁻¹ s⁻¹
same,kinact/KI,[2]; [6],2300 M⁻¹ s⁻¹
COC(=O)CCCC(=O)Nc1ccc2c(Cl)c(OC)oc(=O)c2c1 [7-methoxyglutarylamino-4-chloro-3-methoxyisocoumarin],kinact/KI,[1]; [5],54000 M⁻¹ s⁻¹
same,kinact/KI,[2]; [6],2800 M⁻¹ s⁻¹
COC(=O)CCC(=O)Nc1ccc2c(Cl)c(OC)oc(=O)c2c1 [7-methoxysuccinylamino-4-chloro-3-methoxyisocoumarin],kinact/KI,[1]; [5],43000 M⁻¹ s⁻¹
same,kinact/KI,[2]; [6],2200 M⁻¹ s⁻¹
CNC(=O)Nc1ccc2c(Cl)c(OC)oc(=O)c2c1 [7-methylcarbamoylamino-4-chloro-3-methoxyisocoumarin],kinact/KI,[1]; [5],9460 M⁻¹ s⁻¹
same,kinact/KI,[2]; [6],1300 M⁻¹ s⁻¹
O=C(Nc1ccccc1)Nc1ccc2c(Cl)c(OCCBr)oc(=O)c2c1 [7-phenylcarbamoylamino-4-chloro-3-(2-bromoethoxy)isocoumarin],kinact/KI,[1]; [12],1.2e+06 M⁻¹ s⁻¹
same,kinact/KI,[3]; [7],12 M⁻¹ s⁻¹
same,kinact/KI,[2]; [8],36 M⁻¹ s⁻¹
CCCOc1oc(=O)c2cc(NC(=O)Nc3ccccc3)ccc2c1Cl [7-phenylcarbamoylamino-4-chloro-3-propyloxyisocoumarin],kinact/KI,[1]; [10],143000 M⁻¹ s⁻¹
same,kinact/KI,"[3]; pH 7.5, Table XII, 2.5% Me2SO, 25° C, [I] 3.4-70 μM",6100 M⁻¹ s⁻¹
same,kinact/KI,"[2]; pH 7.5, Table XII, 2.5% Me2SO, 25° C, [I] 34-56 μM, read-out: kobs/[I]",520 M⁻¹ s⁻¹
CCOc1oc(=O)c2cc(NC(=S)Nc3ccccc3)ccc2c1Cl [7-phenylthiocarbamoylamino-4-chloro-3-ethoxyisocoumarin],kinact/KI,[2]; [6],12000 M⁻¹ s⁻¹
CCCOc1oc(=O)c2cc(NC(=S)Nc3ccccc3)ccc2c1Cl [7-phenylthiocarbamoylamino-4-chloro-3-propyloxyisocoumarin],kinact/KI,[1]; [10],> 166000 M⁻¹ s⁻¹
